Test [1] relates to A375 (B-Raf^V600E) malignant melanoma cells. As to the kind of experiment: Anti-proliferation activity, A375 melanoma cells. In kind it is cell-based, human. As to conditions: for inhibition at 10 µM: Homo sapiens, A-375, read-out: Tumor growth inhibition rate A375(B-Raf^V600E); for Tumor growth inhibition rate A375(B-Raf^V600E): [I]=10μM.
Test [2] has as its target B-Raf^WT (Homo sapiens, UniProt P15056). As to the kind of experiment: In vitro B-Raf kinase assay. The format is biochemical. As to conditions: for inhibition at 2 µM: read-out: Inhibition rate (%) B-Raf; for Inhibition rate B-Raf: [I]=1μM; for Inhibition rate (%) B-Raf: 2μM of compound.
Test [3] concerns the target B-Raf^V600E (Homo sapiens, UniProt P15056, V600E). As to the kind of experiment: In vitro B-Raf kinase assay. In kind it is biochemical. As to conditions: for Inhibition rate B-Raf^V600E: [I]=1μM.
The subject of test [4] is SW620 (B-Raf^WT) human colonic carcinoma cells. In words: Anti-proliferation activity, SW620 cells. In kind it is cell-based. As to conditions: SW-620, read-out: Tumor growth inhibition rate SW620 (B-Raf).
Where [5] appears, read: read-out: Inhibition rate (%) B-Raf^V600E.
[6] abbreviates: read-out: Inhibition rate (%) B-Raf^V600E, 2μM of compound.
Setting [7] is: read-out: Inhibition rate (%) B-Raf^V600E, 0.5μM of compound.

Entries after “also recorded” stand apart in the source; their conditions may differ. Like-named read-outs stand apart in the source and are kept apart here.

What is called inhibition is the drop in the measured response relative to a control, in per cent. For orientation: IC50 means the concentration at which inhibition is half-maximal. A high value points to lower potency.

Sequence of B-Raf^V600E (P15056 433-726 V600E): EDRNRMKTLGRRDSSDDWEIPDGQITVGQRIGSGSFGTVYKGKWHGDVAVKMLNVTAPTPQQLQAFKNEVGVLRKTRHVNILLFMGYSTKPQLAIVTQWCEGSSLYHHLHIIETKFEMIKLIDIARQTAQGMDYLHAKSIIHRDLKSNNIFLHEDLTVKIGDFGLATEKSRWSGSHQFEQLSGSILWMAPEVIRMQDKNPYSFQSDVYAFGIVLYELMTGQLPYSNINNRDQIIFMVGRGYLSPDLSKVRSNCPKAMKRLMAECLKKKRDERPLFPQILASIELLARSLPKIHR
Sequence of B-Raf^WT (P15056 433-726): as the sequence (P15056 433-726 V600E) above, with E168V counted along it

In the case of `O=C1NC(=S)NC(=O)C1=Cc1ccc(-c2ccc([N+](=O)[O-])cc2)o1` [Compound 22c, 5-[5-(4-nitro-phenyl)-furan-2ylmethylene]-2-thioxo-dihydro-pyrimidine-4,6-dione], the inhibition at 10 µM in test [1] was found to be 46.3%. Further, the inhibition at 2 µM in test [2] was found to be 55%; in test [3] (setting [5]), 59%. For `O=C1NC(=S)NC(=O)C1=Cc1ccc(-c2ccc(Cl)cc2C(F)(F)F)o1` [Compound 22o, 5-[5-(2-trifluomethyl-4-chloro)-furan-2ylmethylene]-2-thioxo-dihydro-pyrimidine-4,6-dione], the “Inhibition rate B-Raf” value in test [2] is 24%. Besides, the “Inhibition rate B-Raf^V600E” value in test [3] was 49%. On to `O=C1NC(=S)NC(=O)C1=Cc1ccc(-c2cc(C(F)(F)F)ccc2Cl)o1` [Compound 22k, 5-[5-(2-chloro-5-trifluomethyl)-furan-2ylmethylene]-2-thioxo-dihydro-pyrimidine-4,6-dione], for which the “Tumor growth inhibition rate A375(B-Raf^V600E)” value in test [1] is listed as 18.3.

Consider `O=C1NC(=O)C(=Cc2ccc(-c3ccc4ccccc4c3)o2)S1` [Compound 19j, 5-[5-(2-naphthyl)-furan-2ylmethylene]-thiazolidine-2,4-dione], for which, in test [3] (setting [6]), the inhibition at 2 µM was found to be 51%.

Consider `O=C1C(=Cc2ccc(-c3cccc(C(F)(F)F)c3)o2)Cc2ccccc21` [Compound 16b, 2-[5-(3-trifluomethyl-phenyl)-furan-2-ylmethylene]-indan-1-one], for which, in test [3] (2μM of compound), the “Inhibition rate (%) B-Raf^V600E” value was 22% n.d. Consider `O=C1Nc2cc(Cl)ccc2C1=Cc1ccc(-c2cc(C(F)(F)F)ccc2Cl)o1` [Compound 17f, 3-[5-(2-chloro-5-trifluomethyl)-furan-2-ylmethylene]-6-chloro-1,3-dihydro-indol-2-one], for which the “Inhibition rate (%) B-Raf^V600E” value in test [3] (2μM of compound) is on record as 34% n.d. Take `O=C1C(=Cc2ccc(-c3ccccc3[N+](=O)[O-])o2)Cc2ccccc21` [Compound 16a, 2-[5-(2-nitro-phenyl)-furan-2-ylmethylene]-indan-1-one]: in test [1], the inhibition at 10 µM stood at 16.5%. For the same compound, the inhibition at 2 µM in test [2] is 11%; in test [3] (setting [6]) it was above 50%. For the same compound, the inhibition at 0.5 µM in test [3] (setting [7]) stood at 47%. Turning to `O=C1C(=Cc2ccc(-c3cccc(C(F)(F)F)c3)o2)Cc2cc(Cl)ccc21` [Compound 16c, 2-[5-(3-trifluomethyl-phenyl)-furan-2-ylmethylene]-5-chloro-indan-1-one], the “Tumor growth inhibition rate A375(B-Raf^V600E)” value in test [1] stood at 3.2. In addition, in test [3] (0.5μM of compound), the “Inhibition rate (%) B-Raf^V600E” value is on record as 42%. On to `O=C1C(=Cc2ccc(-c3cc(C(F)(F)F)ccc3Cl)o2)Cc2ccccc21` [Compound 16g, 2-[5-(2-chloro-5-trifluomethyl)-furan-2-ylmethylene]-indan-1-one], for which the “Inhibition rate (%) B-Raf^V600E” value in test [3] (2μM of compound) is recorded as 44% n.d. For the compound `CC(C)(C)c1ccc(-c2ccc(C=C3C(=O)NC(=S)NC3=O)o2)cc1` [Compound 22i, 5-[5-(4-tert-butyl-phenyl)-furan-2ylmethylene]-2-thioxo-dihydro-pyrimidine-4,6-dione], the inhibition at 10 µM in test [1] is 95.4%; in test [4], 7.6%. In test [1] (10 µM), the “Tumor growth inhibition rate A375(B-Raf^V600E)” value is given as “potent growth inhibition activity; also recorded: virtually complete growth inhibition”. For the same compound, the results for the inhibition at 2 µM in test [2] and in test [3] (setting [5]) were 29% and 57%, respectively. The inhibition at 0.5 µM in test [3] (setting [5]) turned out to be 36%.

Consider `Cc1ccc(-c2ccc(C=C3SC(=O)NC3=O)o2)cc1` [Compound 19g, 5-[5-(4-methyl-phenyl)-furan-2ylmethylene]-thiazolidine-2,4-dione], for which the inhibition at 2 µM in test [3] (setting [6]) came out at 41%. In the case of `O=C1NC(=S)NC(=O)C1=Cc1ccc(-c2ccc3ccccc3c2)o1` [Compound 22j, 5-[5-(2-naphthyl)-furan-2ylmethylene]-2-thioxo-dihydro-pyrimidine-4,6-dione], in test [1], the inhibition at 10 µM came to 6.9%. Besides, the IC50 came out at 1930 nM in test [2] and 1070 nM in test [3]. On to `O=C1NC(=S)NC(=O)C1=Cc1ccc(-c2ccccc2[N+](=O)[O-])o1` [Compound 22a, 5-[5-(2-nitro-phenyl)-furan-2ylmethylene]-2-thioxo-dihydro-pyrimidine-4,6-dione], for which, in test [2], the inhibition at 2 µM came out at 38%. In test [3] (setting [5]), the inhibition at 0.5 µM worked out at 48% and the inhibition at 2 µM was determined as 61%. Turning to `O=C1Nc2cc(Cl)ccc2C1=Cc1ccc(-c2cccc(C(F)(F)F)c2)o1` [Compound 17b, 3-[5-(3-trifluomethyl-phenyl)-furan-2-ylmethylene]-6-chloro-1,3-dihydro-indol-2-one], in test [3] (2μM of compound), the “Inhibition rate (%) B-Raf^V600E” value is given as 38% n.d.

Turning to `O=C1NC(=S)NC(=O)C1=Cc1ccc(-c2ccc(Cl)c(C(F)(F)F)c2)o1` [Compound 22p, 5-[5-(3-trifluomethyl-4-chloro)-furan-2ylmethylene]-2-thioxo-dihydro-pyrimidine-4,6-dione], in test [2], the “Inhibition rate B-Raf” value is listed as 37%. For the same compound, the “Inhibition rate B-Raf^V600E” value in test [3] is given as 48%. Take `O=C1NC(=S)NC(=O)C1=Cc1ccc(-c2cccc(C(F)(F)F)c2)o1` [Compound 22l, 5-[5-(3-trifluomethyl-phenyl)-furan-2ylmethylene]-2-thioxo-dihydro-pyrimidine-4,6-dione]: the “Inhibition rate B-Raf” value in test [2] was 30%. In addition, the “Inhibition rate B-Raf^V600E” value in test [3] is recorded as 45%. For `O=C1Nc2ccccc2C1=Cc1ccc(-c2cc(C(F)(F)F)ccc2Cl)o1` [Compound 17d, 3-[5-(2-chloro-5-trifluomethyl)-furan-2-ylmethylene]-1,3-dihydro-indol-2-one], the “Inhibition rate (%) B-Raf^V600E” value in test [3] (2μM of compound) was 23% n.d. For the compound `O=C1NC(=O)C(=Cc2ccc(-c3cc(C(F)(F)F)ccc3Cl)o2)S1` [Compound 19k, 5-[5-(2-chloro-5-trifluomethyl)-furan-2ylmethylene]-thiazolidine-2,4-dione], the “Inhibition rate (%) B-Raf” value in test [2] is recorded as 18% n.d. Further, the “Inhibition rate (%) B-Raf^V600E” value in test [3] (2μM of compound) is given as 37% n.d. For the compound `O=C1NC(=S)NC(=O)C1=Cc1ccc(-c2ccc(Cl)cc2[N+](=O)[O-])o1` [Compound 22n, 5-[5-(2-nitro-4-chloro)-furan-2ylmethylene]-2-thioxo-dihydro-pyrimidine-4,6-dione], the “Inhibition rate B-Raf” value in test [2] is listed as 20%. Besides, the “Inhibition rate B-Raf^V600E” value in test [3] came to 22%. For the compound `CC(C)(C)c1ccc(-c2ccc(C=C3SC(=O)NC3=O)o2)cc1` [Compound 19i, 5-[5-(4-tert-butyl-phenyl)-furan-2ylmethylene]-thiazolidine-2,4-dione], the inhibition at 2 µM in test [2] turned out to be 17%; in test [3] (setting [6]) it was 34%.

`O=C1NC(=O)C(=Cc2ccc(-c3ccccc3[N+](=O)[O-])o2)S1` [Compound 19a, 5-[5-(2-nitro-phenyl)-furan-2ylmethylene]-thiazolidine-2,4-dione]: the inhibition at 2 µM in test [3] (setting [6]) was 7%. Regarding `O=C1C(=Cc2ccc(-c3ccc(Cl)cc3)o2)Cc2ccccc21` [Compound 16e, 2-[5-(4-chloro-phenyl)-furan-2-ylmethylene]-indan-1-one], in test [1], the inhibition at 10 µM was 5.2%. For the same compound, the inhibition at 0.5 µM in test [3] (setting [7]) is 41%. For the same compound, in test [3] (setting [6]), the inhibition at 2 µM is above 50%. Take `O=C1C(=Cc2ccc(-c3ccc([N+](=O)[O-])cc3)o2)Cc2ccccc21` [Compound 16d, 2-[5-(4-nitro-phenyl)-furan-2-ylmethylene]-indan-1-one]: the inhibition at 2 µM in test [3] (setting [6]) came to 34%. For `COc1cccc(-c2ccc(C=C3C(=O)NC(=S)NC3=O)o2)c1` [Compound 22b, 5-[5-(3-methoxy-phenyl)-furan-2ylmethylene]-2-thioxo-dihydro-pyrimidine-4,6-dione], in test [1], the inhibition at 10 µM was 26.2%. In test [2], the inhibition at 2 µM stood at 6%. In test [3] (setting [5]), the inhibition at 0.5 µM is 34% and the inhibition at 2 µM is 63%.

For the compound `COc1ccc(-c2ccc(C=C3SC(=O)NC3=O)o2)cc1` [Compound 19h, 5-[5-(4-methoxy-phenyl)-furan-2ylmethylene]-thiazolidine-2,4-dione], the inhibition at 2 µM in test [2] worked out at 3%; in test [3] (setting [6]), 41%. As for `COc1cccc(-c2ccc(C=C3SC(=O)NC3=O)o2)c1` [Compound 19b, 5-[5-(3-methoxy-phenyl)-furan-2ylmethylene]-thiazolidine-2,4-dione], in test [3] (setting [6]), the inhibition at 2 µM was found to be 34%. As for `O=C1NC(=O)C(=Cc2ccc(-c3ccc([N+](=O)[O-])cc3)o2)S1` [Compound 19c, 5-[5-(4-nitro-phenyl)-furan-2ylmethylene]-thiazolidine-2,4-dione], the inhibition at 2 µM in test [3] (setting [6]) was found to be 48%. As for `O=C1Nc2ccc(Cl)cc2C1=Cc1ccc(-c2cc(C(F)(F)F)ccc2Cl)o1` [Compound 17e, 3-[5-(2-chloro-5-trifluomethyl)-furan-2-ylmethylene]-5-chloro-1,3-dihydro-indol-2-one], in test [3] (2μM of compound), the “Inhibition rate (%) B-Raf^V600E” value came out at 34% n.d. `O=C1Nc2ccccc2C1=Cc1ccc(-c2cccc(C(F)(F)F)c2)o1` [Compound 17a, 3-[5-(3-trifluomethyl-phenyl)-furan-2-ylmethylene]-1,3-dihydro-indol-2-one]: the “Inhibition rate (%) B-Raf^V600E” value in test [3] (2μM of compound) was 34% n.d.

Consider `O=C1Nc2ccc(Cl)cc2C1=Cc1ccc(-c2cccc(C(F)(F)F)c2)o1` [Compound 17c, 3-[5-(3-trifluomethyl-phenyl)-furan-2-ylmethylene]-5-chloro-1,3-dihydro-indol-2-one], for which the “Inhibition rate (%) B-Raf” value in test [2] is 17% n.d. For the same compound, in test [3] (2μM of compound), the “Inhibition rate (%) B-Raf^V600E” value stood at 23% n.d.

For the compound `O=C1C(=Cc2ccc(-c3ccc(Br)cc3)o2)Cc2ccccc21` [Compound 16f, 2-[5-(4-bromo-phenyl)-furan-2-ylmethylene]-indan-1-one], in test [3] (setting [6]), the inhibition at 2 µM was determined as 42%.

These data come from PMC3427755 (Organic & biomolecular chemistry, 2012).
